Where a SMILES comes first, the peptide text is derived from it.
Legend:
[1] = Osmolarity of sucrose and glycylglycine solutions and of the first aqueous component; assay type: physicochemical
From the text: Drug loading in MVLs is modulated by controlling the osmolarity of the first aqueous component used during manufacture of the MVLs. Osmolarity is the sum of the molar concentrations of solutes present in an aqueous solution. If the solute is present in a dissociated, ionized or aggregated form, osmolarity is defined as the sum of the molar concentrations of the dissociated, ionized or aggregated forms. The solutes that contribute to the osmolarity of an aqueous solution include the IGF-I, and osmotic excipients that are to be encapsulated during manufacture of MVLs. The contribution to the osmolarity of a solution made by any solute in the solution is approximately equivalent to the weight concentration of the solute in the solution (e.g., mg/mL) divided by its molecular weight. Thus, as a general principle, for a given weight concentration, the larger the molecular weight of a solute, the smaller the osmolarity of the solute, and the smaller the contribution of that solute to the overall osmolarity of the solution. It is also possible to reduce the osmolarity of the first aqueous component by reducing the concentration of the active agent. This method will lead to a lower loading of IGF-I if the concentration of other solutes in the first aqueous component remain constant.

[2] = In vivo pharmacokinetics, serum IGF-I after subcutaneous injection in rats, low load versus free IGF-I; design: species or system rat; conditions: 20 mg/kg s.c.
Experimental: In-vivo studies. The pharmacokinetic behavior of a low load MVL formulation containing IGF-I was compared to that of unencapsulated IGF-I after subcutaneous injections (lower back) in rats. 20 mg/kg doses of either free IGF-I or a MVL formulation or IGF-I prepared from a stock solution of 5 mg/ml IGF-I was injected into each rat, with 3 rats per group. Sera were collected at various times up to 8 days post injection, and assayed for IGF-I using an IGF-I ELISA kits (DSL-10-5600) (Diagnostic Systems Laboratories (DSL), Webster, Tex.) according to the manufacturer's instructions. The pharmacokinetic parameters were calculated using the WinNonlin program (Scientific Consulting Inc.) and a non-compartmental model.

[3] = Solubility of IGF-I in aqueous solution versus pH; assay type: physicochemical
Experimental: Applicants have also discovered a second parameter that must be taken into consideration in determining the composition of the first aqueous component during manufacture of the IGF-I formulations of this invention. The concentration of IGF-I in solution in the first aqueous component during manufacture is directly proportional to the amount of IGF-I that can be loaded in any give formulation. […] Further studies have shown that up to about 300 mg/mL of IGF-I can be solubilized at a pH below 5. Thus, to obtain and maintain sufficient IGF-I in solution in the first aqueous solution, a buffer or acid is also added to it during manufacture to assure a high enough concentration of dissolved IGF-I in the first aqueous component to obtain a final MVL product containing the desired loading of the drug. For the low load formulations, the pH of the first aqueous component is generally adjusted to a value within the range of 1 to about 5, while for high load formulations the pH range is between 2 and 4.8.

MG-63 cells = experiment: Mitogenic bioassay, MG-63 cells, MTT stain; assay type: cell-based, human; conditions: standard control in mitogenic assay

| Compound | Osmolarity ([1]; 0.5 w/v %) | Osmolarity ([1]; 1.0 w/v %) | Osmolarity ([1]; 1.5 w/v %) | Osmolarity ([1]; 2.0 w/v %) | Osmolarity ([1]; 2.5 w/v %) | Osmolarity ([1]; 3.0 w/v %) | Osmolarity ([1]; 4.0 w/v %) | Osmolarity ([1]; 5.0 w/v %) | Osmolarity ([1]; 6.0 w/v %) | Osmolarity ([1]; 7.0 w/v %) | Osmolarity ([1]; 8.0 w/v %) | Time after which free IGF-I is cleared [2] | Solubility of IGF-I in aqueous solution ([3]; at a pH of about 5) | IGF-I solubilized ([3]; pH below 5) | Bioactivity of standard rhIGF-I (MG-63 cells; listed as recombinant human IGF-I) | Bioactivity of standard rhIGF-I (MG-63 cells; listed as rhIGF-I) |
| --- | --- | --- | --- | --- | --- | --- | --- | --- | --- | --- | --- | --- | --- | --- | --- | --- |
| NCC(=O)NCC(=O)O [Glycylglycine, glycylglycine] (H-Gly-Gly-OH) | 38 mOsm | 76 mOsm | 114 mOsm | 152 mOsm | 189 mOsm | 227 mOsm | 303 mOsm | 379 mOsm | 455 mOsm | 530 mOsm | 606 mOsm |  |  |  |  |  |
| OC[C@H]1O[C@@](CO)(O[C@H]2O[C@H](CO)[C@@H](O)[C@H](O)[C@H]2O)[C@@H](O)[C@@H]1O [sucrose] | 15 mOsm | 30 mOsm | 45 mOsm | 60 mOsm | 76 mOsm | 91 mOsm | 123 mOsm | 156 mOsm | 190 mOsm | 225 mOsm | 261 mOsm |  |  |  |  |  |
| Insulin-like Growth Factor I [IGF-I] |  |  |  |  |  |  |  |  |  |  |  | about 1 day | drops precipitously at a pH of about 5 | up to 300 mg/mL | 1.3×10^3 international units (IU)/mL | ~ 1.3×10^3 international units (IU)/mL |

Source: patent publication US6306432A, “High and low load formulations of IGF-I in multivesicular liposomes” (Chiron Corporation, priority 1997, dated 2001)
